From patent US10544130B2, “Metallo-beta-lactamase inhibitors” (priority 2015, dated 2020)
Structures can show the parent of a compound that is named as a salt. Where two headings read alike, the source gives them in different places.

Legend:
[1] = test system: Serratia marcescens expressing IMP-1 (CL5741); format: cell-based; conditions: with imipenem 1 μg/ml; 95% inhibition of bacterial growth
In short: (§1)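 Growth read by absorbance after 22–24 h at 35 °C in CAMHB, with test compound alone or combined with 1 μg/ml imipenem. Inocula came from overnight 35 °C blood-agar colonies, set to a defined OD600 and diluted 1:100. Value is the inhibitor concentration giving synergy.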

[2] = test system: Klebsiella pneumoniae expressing VIM-1 (IHMA599644); format: cell-based; conditions: with imipenem 1 μg/ml; 95% inhibition of bacterial growth
In short: as §1

[3] = test system: Pseudomonas aeruginosa PAO1 MB9798 (efflux+, IMP-1); conditions: imipenem at 2 μg/mL
In short: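 Isogenic PAO1 pair (efflux+ MB9798, efflux− MB9799, both IMP-1) tested by microbroth MIC with fixed imipenem and/or ceftazidime, usually at CLSI breakpoint, plus fixed class A/C inhibitor against AmpC. MBL inhibitor titrated; concentration restoring susceptibility recorded and fold difference between strains taken as efflux extent.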

[4] = test system: Escherichia coli expressing NDM-1 (CLB30005, CLB30016); format: cell-based; conditions: with imipenem 1 μg/ml; 95% inhibition of bacterial growth
In short: as §1

[5] = ratio MITC95 PA 9798/MITC95 PA 9799

Structure (SMILES)	Serratia marcescens (IMP-1) MITC95 [1]	Klebsiella pneumoniae (VIM-1) MITC95 [2]	Efflux ratio [3, 5]	Escherichia coli (NDM-1) MITC95 [4]	Efflux ratio ([3]; fold difference between efflux + (MB9798) and efflux − (MB9799) strains)
Nc1nc2c(-c3ccc(S(=O)(=O)N[C@@H]4CNC[C@@H]4N)c(S(N)(=O)=O)c3-c3nn[nH]n3)cccc2[nH]1 [Example 240, 4-(2-amino-1H-benzo[d]imidazol-4-yl)-N^1-((3R,4S)-4-aminopyrrolidin-3-yl)-3-(2H-tetrazol-5-yl)benzene-1,2-disulfonamide]	0.7813 µM	1.563 µM	1.00		
CN(C1CNC1)S(=O)(=O)c1ccc(-c2cccc3[nH]c(N)nc23)c(-c2nn[nH]n2)c1S(N)(=O)=O [Example 255, 4-(2-amino-1H-benzo[d]imidazol-4-yl)-N1-(azetidin-3-yl)-N1-methyl-3-(2H-tetrazol-5-yl)benzene-1,2-disulfonamide]	0.7813 µM	0.7813 µM	2.00		
CC1(NS(=O)(=O)c2ccc(-c3cccc4[nH]c(N)nc34)c(-c3nn[nH]n3)c2S(N)(=O)=O)CNC1 [Example 257, 4-(2-amino-1H-benzo[d]imidazol-4-yl)-N1-(3-methylazetidin-3-yl)-3-(2H-tetrazol-5-yl)benzene-1,2-disulfonamide]	0.7813 µM	0.7813 µM	1.00		
Nc1nc2c(-c3ccc(S(=O)(=O)NC[C@H]4CCCN4)c(S(N)(=O)=O)c3-c3nn[nH]n3)cccc2[nH]1 [Example 261, (R)-4-(2-amino-1H-benzo[d]imidazol-4-yl)-N1-(pyrrolidin-2-ylmethyl)-3-(2H-tetrazol-5-yl) benzene-1,2-disulfonamide]	0.7813 µM	0.7813 µM	1.00		
Nc1nc2c(-c3ccc(S(=O)(=O)NC[C@@H]4CCCN4)c(S(N)(=O)=O)c3-c3nn[nH]n3)cccc2[nH]1 [Example 262, (S)-4-(2-amino-1H-benzo[d]imidazol-4-yl)-N1-(pyrrolidin-2-ylmethyl)-3-(2H-tetrazol-5-yl)benzene-1,2-disulfonamide]	0.7813 µM	0.7813 µM	1.00		
C[C@H](N)c1nc2c(-c3ccc(S(=O)(=O)N[C@@H]4CCNC4)c(S(N)(=O)=O)c3-c3nn[nH]n3)cccc2[nH]1 [Example 272, 4-(2-((S)-1-aminoethyl)-1H-benzo[d]imidazol-4-yl)-N1-((R)-pyrrolidin-3-yl)-3-(2H-tetrazol-5-yl)benzene-1,2-disulfonamide]	1.563 µM	1.563 µM	2.00		
NCc1nc2c(-c3ccc(S(=O)(=O)N[C@@H]4CCNC4)c(S(N)(=O)=O)c3-c3nn[nH]n3)cccc2s1 [Example 276, (R)-4-(2-(aminomethyl)benzo[d]thiazol-4-yl)-N1-(pyrrolidin-3-yl)-3-(2H-tetrazol-5-yl)benzene-1,2-disulfonamide]	0.7813 µM	0.7813 µM	1.00		
NCc1csc(Nc2cccc(-c3ccc(S(=O)(=O)N[C@@H]4CCNC4)c(S(N)(=O)=O)c3-c3nn[nH]n3)c2)n1 [Example 290, (R)-3′-((4-(aminomethyl)thiazol-2-yl)amino)-N4-(pyrrolidin-3-yl)-2-(2H-tetrazol-5-yl)-[1,1′-biphenyl]-3,4-disulfonamide]	0.7813 µM	0.7813 µM	2.00		
Nc1ccc(-c2ccc(S(=O)(=O)NC[C@H](N)CO)c(S(N)(=O)=O)c2-c2nn[nH]n2)cn1 [Example 297, (S)—N^1-(2-amino-3-hydroxypropyl)-4-(6-aminopyridin-3-yl)-3-(2H-tetrazol-5-yl) benzene-1,2-disulfonamide]	0.7813 µM	1.563 µM	1.00		
C[C@H](CN)NS(=O)(=O)c1ccc(-c2ccnc(N)c2)c(-c2nn[nH]n2)c1S(N)(=O)=O [Example 317, (R)—N1-(1-aminopropan-2-yl)-4-(2-aminopyridin-4-yl)-3-(2H-tetrazol-5-yl) benzene-1,2-disulfonamide]	1.563 µM	3.125 µM	0.50		
N[C@@H]1CNC[C@@H]1NS(=O)(=O)c1ccc(-c2cnc3cc[nH]c3c2)c(-c2nn[nH]n2)c1S(N)(=O)=O [Example 326, N1-((3S,4R)-4-aminopyrrolidin-3-yl)-4-(1H-pyrrolo[3,2-b]pyridin-6-yl)-3-(2H-tetrazol-5-yl)benzene-1,2-disulfonamide]	1.563 µM	1.563 µM	1.00		
NCCNC(=O)c1cccc(-c2ccc(S(=O)(=O)NCCN)c(S(N)(=O)=O)c2-c2nn[nH]n2)c1 [Example 334, N-(2-aminoethyl)-4′-(N-(2-aminoethyl)sulfamoyl)-3′-sulfamoyl-2′-(2H-tetrazol-5-yl)-[1,1′-biphenyl]-3-carboxamide]	0.7813 µM	0.7813 µM	2.00		
NCCNS(=O)(=O)c1ccc(-c2cccc3sc(CN)nc23)c(-c2nn[nH]n2)c1S(N)(=O)=O [Example 345, N^1-(2-aminoethyl)-4-(2-(aminomethyl)benzo[d]thiazol-4-yl)-3-(2H-tetrazol-5-yl)benzene-1,2-disulfonamide]	0.7813 µM	0.7813 µM	1.00		
NCCNS(=O)(=O)c1ccc(-c2cccc(-c3c[nH]c(N)n3)c2)c(-c2nn[nH]n2)c1S(N)(=O)=O [Example 353, 3′-(2-amino-1H-imidazol-4-yl)-N4-(2-aminoethyl)-2-(2H-tetrazol-5-yl)-[1,1′-biphenyl]-3,4-disulfonamide]	0.7813 µM	1.563 µM	2.00		
NC[C@H](N)CNS(=O)(=O)c1ccc(-c2cnc3cc[nH]c3c2)c(-c2nn[nH]n2)c1S(N)(=O)=O [Example 373, (S)-N1-(2,3-diaminopropyl)-4-(1H-pyrrolo[3,2-b]pyridin-6-yl)-3-(2H-tetrazol-5-yl)benzene-1,2-disulfonamide]	1.563 µM	3.125 µM	1.00		
NC[C@@H](N)CNS(=O)(=O)c1ccc(-c2cccc3[nH]c(N)nc23)c(-c2nn[nH]n2)c1S(N)(=O)=O [Example 375, (R)-4-(2-amino-1H-benzo[d]imidazol-4-yl)-N1-(2,3-diaminopropyl)-3-(2H-tetrazol-5-yl)benzene-1,2-disulfonamide]	1.563 µM	1.563 µM	1.00		
NC[C@@H](CO)NS(=O)(=O)c1ccc(-c2ccnc(N)c2)c(-c2nn[nH]n2)c1S(N)(=O)=O [Example 380, (S)—N1-(1-amino-3-hydroxypropan-2-yl)-4-(2-aminopyridin-4-yl)-3-(2H-tetrazol-5-yl)benzene-1,2-disulfonamide]	0.7813 µM	1.563 µM	1.00		
NCCNS(=O)(=O)c1ccc(-c2ccc3nccn3c2)c(-c2nn[nH]n2)c1S(N)(=O)=O [Example 401, N^1-(2-aminoethyl)-4-(imidazo[1,2-a]pyridin-6-yl)-3-(2H-tetrazol-5-yl)benzene-1,2-disulfonamide]		1.563 µM		0.7813 µM	
C[C@H](CN)NS(=O)(=O)c1ccc(-c2cccnc2NCCN)c(-c2nn[nH]n2)c1S(N)(=O)=O [Example 460, (R)-4-(2-((2-aminoethyl)amino)pyridin-3-yl)-N1-(1-aminopropan-2-yl)-3-(2H-tetrazol-5-yl)benzene-1,2-disulfonamide]	1.563 µM	1.563 µM			
Cc1cc(-c2ccc(S(=O)(=O)NC[C@H](O)CN)c(S(N)(=O)=O)c2-c2nn[nH]n2)cnc1N [Example 477, (R)—N1-(3-amino-2-hydroxypropyl)-4-(6-amino-5-methylpyridin-3-yl)-3-(2H-tetrazol-5-yl)benzene-1,2-disulfonamide]	0.7813 µM	1.563 µM			
NCCNCCNS(=O)(=O)c1ccc(-c2ccc(N)nc2)c(-c2nn[nH]n2)c1S(N)(=O)=O [Example 482, N1-(2-(−2-amineoethylamino)ethyl)-4-(6-aminopyridin-3-yl)-3-(2H-tetrazol-5-yl)benzene-1,2-disulfonamide]	0.7813 µM	1.563 µM			
NC[C@@]1(NS(=O)(=O)c2ccc(-c3ccc(N)nc3)c(-c3nn[nH]n3)c2S(N)(=O)=O)CCNC1 [Example 487, (S)-N1-(3-(aminomethyl)pyrrolidin-3-yl)-4-(6-aminopyridin-3-yl)-3-(2H-tetrazol-5-yl)benzene-1,2-disulfonamide dihydrochloride]	0.7813 µM	1.563 µM			1.00
Nc1ccc(-c2ccc(S(=O)(=O)N[C@@H]3CCCNC3)c(S(N)(=O)=O)c2-c2nn[nH]n2)cn1 [Example 490, (R)-4-(6-aminopyridin-3-yl)-N1-(piperidin-3-yl)-3-(2H-tetrazol-5-yl)benzene-1,2-disulfonamide]	1.563 µM	3.125 µM			
